# Biological target: T1, human MPO (Homo sapiens, UniProt P05164)
# T1 sequence (P05164 49-745): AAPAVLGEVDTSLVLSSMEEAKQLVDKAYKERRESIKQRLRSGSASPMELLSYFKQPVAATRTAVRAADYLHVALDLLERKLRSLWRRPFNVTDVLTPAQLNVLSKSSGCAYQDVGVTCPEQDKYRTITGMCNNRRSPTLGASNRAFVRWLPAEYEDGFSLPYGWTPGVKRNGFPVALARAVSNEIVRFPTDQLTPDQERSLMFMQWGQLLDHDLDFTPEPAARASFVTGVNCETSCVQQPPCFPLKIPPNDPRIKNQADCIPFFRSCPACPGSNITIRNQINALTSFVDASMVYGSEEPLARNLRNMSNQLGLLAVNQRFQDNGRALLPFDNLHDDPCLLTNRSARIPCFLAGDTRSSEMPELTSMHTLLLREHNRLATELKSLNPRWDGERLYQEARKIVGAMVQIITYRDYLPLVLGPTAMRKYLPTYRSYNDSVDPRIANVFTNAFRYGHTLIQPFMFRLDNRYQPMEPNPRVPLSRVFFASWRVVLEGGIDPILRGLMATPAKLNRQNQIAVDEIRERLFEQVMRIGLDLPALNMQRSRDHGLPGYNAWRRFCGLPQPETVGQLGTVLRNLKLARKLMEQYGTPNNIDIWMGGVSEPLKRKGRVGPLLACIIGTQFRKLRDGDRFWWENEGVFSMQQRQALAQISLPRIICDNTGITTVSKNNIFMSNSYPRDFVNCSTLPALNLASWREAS
# Test: MPO inhibition screen (TMB oxidation, absorbance at about 650 nM)
# Assay type: biochemical
# Details: human MPO 2.5 nM, H2O2 100 μM, assay buffer pH 6.5, room temperature
# Protocol: The pharmacological activity of compounds according to the invention was tested in the following screen:
# Assay buffer: 20 mM sodium/potassium phosphate buffer pH 6.5 containing 10 mM taurine and 100 mM NaCl.
# Then 50 μl of H202 (final concentration 100 μM), or assay buffer alone as a control, were added for 10 minutes at room temperature. […] IC50 values were then determined using standard procedures.
row,Structure (SMILES),IC50
1,"O=c1[nH]c(=S)n(CC2CCCCC2)c2nc[nH]c12 [Example 10, 3-Cyclohexylmethyl-2-thioxanthine]",0.53 µM
2,"CC(C)Cn1c(=S)[nH]c(=O)c2[nH]cnc21 [Example 6, 3-Isobutyl-2-thioxanthine]",0.87 µM
3,"O=c1[nH]c(=S)n(CCc2ccccc2)c2nc[nH]c12 [Example 20, 3-Phenethyl-2-thioxanthine]",0.96 µM
4,"O=c1[nH]c(=S)n(CCCN2CCOCC2)c2nc[nH]c12 [Example 16, 3-(3-(1-Morpholinyl)-propyl)-2-thioxanthine]",2.94 µM
5,"O=c1[nH]c(=S)n(CC2CCCO2)c2nc[nH]c12 (racemic) [Example 14, 3-(2-Tetrahydrofuryl-methyl)-2-thioxanthine]",0.51 µM
6,"COCCn1c(=S)[nH]c(=O)c2[nH]cnc21 [Example 15, 3-(2-Methoxy-ethyl)-2-thioxanthine]",0.44 µM
7,"O=c1[nH]c(=S)n(Cc2ccco2)c2nc[nH]c12 [Example 17, 3-(2-Furyl-methyl)-2-thioxanthine]",7.57 µM
8,"COc1ccc(Cn2c(=S)[nH]c(=O)c3[nH]cnc32)cc1 [Example 18, 3-(4-Methoxybenzyl)-2-thioxanthine]",0.49 µM

# Source: patent US8236951B2, “Thioxanthine derivatives as myeloperoxidase inhibitors” (AstraZeneca AB, priority 2002, dated 2012)
